Measurements as given in BigSolDB 2.1.

COCC(=O)Nc1c(I)c(C(=O)NCC(O)CO)c(I)c(C(=O)N(C)CC(O)CO)c1I (stereo not given)
solubility (mole fraction)
Conditions	273.15 K	278.15 K	283.15 K	288.15 K	293.15 K	298.15 K	303.15 K	308.15 K	313.15 K	318.15 K
in DMF	0.00368	0.0038	0.00394	0.00409	0.00427	0.00446	0.00467	0.0049	0.00517	0.00544
in acetone	3.54e-05	4.29e-05	5.29e-05	6.52e-05	7.88e-05	9.34e-05	0.00011	0.000128	0.000149	0.000171
in ethanol	0.000152	0.000178	0.000215	0.000254	0.000296	0.000339	0.000384	0.000437	0.000495	0.000558
in ethyl acetate	1.36e-05	2.01e-05	2.74e-05	3.57e-05	4.52e-05	5.65e-05	6.84e-05	8.46e-05	0.000101	0.000127
in isopropanol	5.1e-05	6.23e-05	7.52e-05	9.01e-05	0.000108	0.000128	0.00015	0.000177	0.000203	0.000233
in methanol	0.000236	0.000282	0.000349	0.000419	0.000496	0.000576	0.000666	0.00077	0.00088	0.000997
in toluene	9.9e-06	1.08e-05	1.19e-05	1.31e-05	1.43e-05	1.56e-05	1.69e-05	1.83e-05	1.97e-05	2.12e-05
